Measurements as given in patent US9079901B2, “Fused heterocyclic compounds as ion channel modulators” (Gilead Sciences, Inc., priority 2010, dated 2015).

Molecular target: wild-type human cardiac sodium channel, hNav1.5 (late sodium current) in HEK293 cells (Homo sapiens, UniProt Q14524)
Assay: Late INa screening assay (automated whole-cell patch clamp, PatchXpress)
Assay type: cell-based
Settings: HEK293, compound at 1 μM; late INa generated with 10 μM Tefluthrin (or 50 nM ATX II); HEK293 hNav1.5; read-out: Late INa 1 μM (percent block of late INa)
Method: The late sodium current (Late INa) and peak sodium current (Peak INa) assays are performed on an automated electrophysiology platform, PatchXpress 7000A (MDS Analytical Technologies, Sunnyvale, Calif.), which uses the whole cell patch clamp technique to measure currents through the cell membrane of up to 16 cells at a time. The assay uses an HEK293 (human embryonic kidney) cell line heterologously expressing the wild-type human cardiac sodium channel, hNav1.5, purchased from Millipore (Billerica, Mass.). No beta subunits were coexpressed with the Na channel alpha subunit. Cells are maintained with standard tissue culture procedures and stable channel expression is maintained with 400 μg/ml Geneticin in the culture medium. Cells isolated for use on PatchXpress are incubated for 5 minutes in Versene 1× and then for 2 minutes in 0.0125% Trypsin-EDTA (both at 37° C.) to ensure that 80-90% of the cells are single and not part of a cell cluster. Experiments are carried out at 24-27° C.
For both the Late INa and Peak INa assays, series resistance compensation is set to 50% and whole-cell compensation is performed automatically. Currents are low-pass filtered at 10 kHz and digitized at 31.25 kHz. Currents through open sodium channels are automatically recorded and stored in the DataXpress2 database (MDS Analytical Technologies, Sunnyvale, Calif.). Analysis is performed using DataXpress2 analysis software and data are compiled in Excel.
Compound stocks are routinely made in glass vials to 10 mM in dimethyl sulfoxide (DMSO). In some cases, when compounds are not soluble in DMSO, they are made in 100% ethanol. Stocks are sonicated as necessary. The extracellular solution for screening Late INa is composed of: 140 mM NaCl, 4 mM KCl, 1.8 mM CaCl2, 0.75 mM MgCl2, and 5 mM HEPES with pH adjusted to 7.4 using NaOH. The extracellular solution for screening Peak INa is composed of: 20 mM NaCl, 120 mM N-methyl-D glucamine, 4 mM KCl, 1.8 mM CaCl2, 0.75 mM MgCl2, and 5 mM HEPES with pH adjusted to 7.4 using HCl. The intracellular solution used to perfuse the inside of the cells for both the Late INa and Peak INa assays contains: 120 mM CsF, 20 mM CsCl, 5 mM EGTA, 5 mM HEPES and pH adjusted to 7.4 with CsOH. Compounds are diluted in extracellular solution to 10 μM in glass vials and then transferred to glass well plates before robotic addition to the cells. The 0Na extracellular solution used at the end of each experiment for the Late INa and Peak INa assays to measure baseline current contains: 140 mM N-methyl-D-glucamine; 4 mM KCl; 1.8 mM CaCl2; 0.75 mM MgCl2; 5 mM HEPES and pH was adjusted to 7.4 with HCl.
For the Late INa assay, sodium channels are activated every 10 seconds (0.1 Hz) by depolarizing the cell membrane to −20 mV for 250 milliseconds (ms) from a holding potential of −120 mV. In response to a −20 mV voltage step, typical Nav1.5 sodium currents activate rapidly to a peak negative current and then inactivate nearly completely within 3-4 ms.
All compounds are tested to determine their activity in blocking the late sodium current. Late INa current is generated by adding 10 μM Tefluthrin (pyrethroid) to the extracellular solution while recording Na currents. For some experiments, 50 nM ATX II (sea anemone toxin), another late INa activator, was used to generate the late component. Both activators generate late components that are large enough that block of the late component by compounds can be measured easily. For the purposes of the screening, late INa is defined as the mean current between 225 ms and 250 ms after stepping to −20 mV to activate Na channels. After establishing the whole cell recording configuration, late INa activators are added to each well 4 times over a 16-17 minute period so that the late component of the Na current reaches a stable value. Compounds are then added (typically at 10 μM), in the presence of late INa activator, with 3 additions over the course of 7 or 8 minutes. […]

Chain of wild-type human cardiac sodium channel, hNav1.5 (late sodium current) in HEK293 cells (Q14524 whole entry): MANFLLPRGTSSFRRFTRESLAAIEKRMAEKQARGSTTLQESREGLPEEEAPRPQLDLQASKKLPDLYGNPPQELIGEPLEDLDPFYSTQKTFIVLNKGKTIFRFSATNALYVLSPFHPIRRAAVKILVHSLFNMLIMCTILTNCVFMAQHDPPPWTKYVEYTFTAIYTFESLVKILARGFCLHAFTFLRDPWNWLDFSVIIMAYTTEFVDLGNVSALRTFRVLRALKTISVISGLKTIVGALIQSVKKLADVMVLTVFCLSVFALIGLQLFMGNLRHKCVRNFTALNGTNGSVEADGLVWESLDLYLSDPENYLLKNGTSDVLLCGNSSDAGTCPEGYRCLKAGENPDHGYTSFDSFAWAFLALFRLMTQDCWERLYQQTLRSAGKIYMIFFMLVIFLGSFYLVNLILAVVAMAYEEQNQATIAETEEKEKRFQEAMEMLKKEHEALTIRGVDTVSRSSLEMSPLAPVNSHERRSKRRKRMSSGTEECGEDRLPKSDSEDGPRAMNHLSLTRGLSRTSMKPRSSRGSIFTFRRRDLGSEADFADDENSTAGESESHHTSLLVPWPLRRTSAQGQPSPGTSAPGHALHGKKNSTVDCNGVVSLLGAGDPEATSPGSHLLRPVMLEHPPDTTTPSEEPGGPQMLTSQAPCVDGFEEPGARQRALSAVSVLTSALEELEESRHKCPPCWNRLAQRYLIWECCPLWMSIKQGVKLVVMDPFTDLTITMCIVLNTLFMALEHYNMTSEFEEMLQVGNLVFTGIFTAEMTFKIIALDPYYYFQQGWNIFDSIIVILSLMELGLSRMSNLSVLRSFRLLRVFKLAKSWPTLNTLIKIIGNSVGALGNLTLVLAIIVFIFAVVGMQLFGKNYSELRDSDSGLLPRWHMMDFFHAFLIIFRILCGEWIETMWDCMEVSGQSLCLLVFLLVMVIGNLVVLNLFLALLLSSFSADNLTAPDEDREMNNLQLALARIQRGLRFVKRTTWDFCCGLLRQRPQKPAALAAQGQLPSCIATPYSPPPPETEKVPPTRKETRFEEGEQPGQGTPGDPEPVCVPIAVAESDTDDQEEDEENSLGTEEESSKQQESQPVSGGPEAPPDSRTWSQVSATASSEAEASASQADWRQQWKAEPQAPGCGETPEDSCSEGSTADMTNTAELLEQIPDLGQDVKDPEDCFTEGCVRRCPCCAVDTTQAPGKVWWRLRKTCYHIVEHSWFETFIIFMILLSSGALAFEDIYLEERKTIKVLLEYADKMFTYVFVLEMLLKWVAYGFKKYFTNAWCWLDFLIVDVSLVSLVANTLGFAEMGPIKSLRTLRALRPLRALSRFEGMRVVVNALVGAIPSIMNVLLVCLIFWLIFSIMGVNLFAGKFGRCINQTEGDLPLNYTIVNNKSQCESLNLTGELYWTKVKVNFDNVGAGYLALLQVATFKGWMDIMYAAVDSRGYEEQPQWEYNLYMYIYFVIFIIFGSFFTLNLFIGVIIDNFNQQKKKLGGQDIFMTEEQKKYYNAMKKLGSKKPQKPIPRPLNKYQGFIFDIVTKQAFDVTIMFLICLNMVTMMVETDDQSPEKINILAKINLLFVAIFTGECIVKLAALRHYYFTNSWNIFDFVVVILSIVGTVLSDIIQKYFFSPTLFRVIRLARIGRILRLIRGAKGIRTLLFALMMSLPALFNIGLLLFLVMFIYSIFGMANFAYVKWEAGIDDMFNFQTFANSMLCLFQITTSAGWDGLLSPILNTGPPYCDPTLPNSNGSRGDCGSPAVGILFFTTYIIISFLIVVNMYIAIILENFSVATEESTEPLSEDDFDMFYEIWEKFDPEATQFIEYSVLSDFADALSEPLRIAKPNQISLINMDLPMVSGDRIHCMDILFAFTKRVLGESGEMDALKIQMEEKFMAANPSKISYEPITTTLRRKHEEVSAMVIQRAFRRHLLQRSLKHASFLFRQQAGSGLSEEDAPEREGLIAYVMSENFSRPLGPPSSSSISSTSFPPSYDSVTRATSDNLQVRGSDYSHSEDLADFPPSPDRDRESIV

Compared with `CC(C)(C)c1cnc(Cn2nc3ccc(-c4ccc(C(F)(F)F)cc4)cn3c2=O)o1` [compound 184, 2-((5-tert-butyloxazol-2-yl)methyl)-6-(4-(trifluoromethyl)phenyl)-[1,2,4]triazolo[4,3-a]pyridin-3(2H)-one], `Cc1nnc(Cn2nc3ccc(-c4ccc(OC(F)(F)F)cc4)cn3c2=O)o1` [compound 18, 2-((5-methyl-1,3,4-oxadiazol-2-yl)methyl)-6-(4-(trifluoromethoxy)phenyl)-[1,2,4]triazolo[4,3-a]pyridin-3(2H)-one] is lower in inhibition at 1 µM: 18.9% for the first, 11.5% for the second.

First: O=c1n(CC(COc2ccccc2Cl)Oc2ncccn2)nc2ccc(-c3ccc(OC(F)(F)F)cc3)cn12 (stereo not drawn) [compound 89, 2-(3-(2-chlorophenoxy)-2-(pyrimidin-2-yloxy)propyl)-6-(4-(trifluoromethoxy)phenyl)-[1,2,4]triazolo[4,3-a]pyridin-3(2H)-one]
Second: O=c1n(CCOc2nccc(-c3ccccc3)n2)nc2ccc(-c3ccc(OC(F)(F)F)cc3)cn12 [compound 115, 2-(2-(4-phenylpyrimidin-2-yloxy)ethyl)-6-(4-(trifluoromethoxy)phenyl)-[1,2,4]triazolo[4,3-a]pyridin-3(2H)-one]
The inhibition at 1 µM of the first is lower: 16% for the first, 22.9% for the second.

Compared with `O=c1n(CCOc2nccc(C3CC3)n2)nc2ccc(-c3ccc(OC(F)(F)F)cc3)cn12` [compound 90, 2-(2-(4-cyclopropylpyrimidin-2-yloxy)ethyl)-6-(4-(trifluoromethoxy)phenyl)-[1,2,4]triazolo[4,3-a]pyridin-3(2H)-one], `CCOc1ccnc(OCCn2nc3ccc(-c4ccc(OC(F)(F)F)cc4)cn3c2=O)n1` [compound 106, 2-(2-(4-ethoxypyrimidin-2-yloxy)ethyl)-6-(4-(trifluoromethoxy)phenyl)-[1,2,4]triazolo[4,3-a]pyridin-3(2H)-one] is higher in inhibition at 1 µM: 36.3% for the first, 47.2% for the second.

Going from `Cc1nonc1Cn1nc2ccc(-c3ccc(OC(F)(F)F)cc3)cn2c1=O` [compound 2, 2-((4-methyl-1,2,5-oxadiazol-3-yl)methyl)-6-(4-(trifluoromethoxy)phenyl)-[1,2,4]triazolo[4,3-a]pyridin-3(2H)-one] to `COCc1noc(Cn2nc3ccc(-c4ccc(OC(F)(F)F)cc4)cn3c2=O)n1` [compound 153, 2-((3-(methoxymethyl)-1,2,4-oxadiazol-5-yl)methyl)-6-(4-(trifluoromethoxy)phenyl)-[1,2,4]triazolo[4,3-a]pyridin-3(2H)-one], the inhibition at 1 µM falls from 41.3% to 23.2%.

Compared with `COc1cc(F)ccc1OCCCn1nc2ccc(-c3ccc(OC(F)(F)F)cc3)cn2c1=O` [compound 67, 2-(3-(4-fluoro-2-methoxyphenoxy)propyl)-6-(4-(trifluoromethoxy)phenyl)-[1,2,4]triazolo[4,3-a]pyridin-3(2H)-one], `COc1ccccc1OCCn1nc2ccc(-c3ccc(OC(F)(F)F)cc3)cn2c1=O` [compound 69, 2-(2-(2-methoxyphenoxy)ethyl)-6-(4-(trifluoromethoxy)phenyl)-[1,2,4]triazolo[4,3-a]pyridin-3(2H)-one] is higher in inhibition at 1 µM: 19.2% for the first, 32.5% for the second.

Compared with `O=c1n(Cc2coc(C3CC3)n2)nc2ccc(-c3ccc(OC(F)(F)F)cc3)cn12` [compound 181, 2-((2-cyclopropyloxazol-4-yl)methyl)-6-(4-(trifluoromethoxy)phenyl)-[1,2,4]triazolo[4,3-a]pyridin-3(2H)-one], `Cn1nc(C2CC2)cc1Cn1nc2ccc(-c3ccc(OC(F)(F)F)cc3)cn2c1=O` [compound 26, 2-((3-cyclopropyl-1-methyl-1H-pyrazol-5-yl)methyl)-6-(4-(trifluoromethoxy)phenyl)-[1,2,4]triazolo[4,3-a]pyridin-3(2H)-one] is lower in inhibition at 1 µM: 23.9% for the first, 19.3% for the second.

Compared with `Cc1oc(-c2ccccc2)nc1Cn1nc2ccc(-c3ccc(OC(F)(F)F)cc3)cn2c1=O` [compound 21, 2-((5-methyl-2-phenyloxazol-4-yl)methyl)-6-(4-(trifluoromethoxy)phenyl)-[1,2,4]triazolo[4,3-a]pyridin-3(2H)-one], `O=c1n(Cc2nc3ccccc3s2)nc2ccc(-c3ccc(OC(F)(F)F)cc3)cn12` [compound 20, 2-(benzo[d]thiazol-2-ylmethyl)-6-(4-(trifluoromethoxy)phenyl)-[1,2,4]triazolo[4,3-a]pyridin-3(2H)-one] is higher in inhibition at 1 µM: 11% for the first, 17.4% for the second.

First: O=c1n(CCOc2ccccc2)nc2ccc(-c3ccc(OC(F)(F)F)cc3)cn12 [compound 28, 2-(2-phenoxyethyl)-6-(4-(trifluoromethoxy)phenyl)-[1,2,4]triazolo[4,3-a]pyridin-3(2H)-one]
Second: O=c1n(CCOc2cnc(Cl)nc2)nc2ccc(-c3ccc(OC(F)(F)F)cc3)cn12 [compound 139, 2-(2-(2-chloropyrimidin-5-yloxy)ethyl)-6-(4-(trifluoromethoxy)phenyl)-[1,2,4]triazolo[4,3-a]pyridin-3(2H)-one]
The inhibition at 1 µM of the first is higher: 46.3% for the first, 20.2% for the second.

Going from `O=c1n(Cc2nc(-c3ccccc3Cl)no2)nc2ccc(-c3ccc(OC(F)(F)F)cc3)cn12` [compound 33, 2-((3-(2-chlorophenyl)-1,2,4-oxadiazol-5-yl)methyl)-6-(4-(trifluoromethoxy)phenyl)-[1,2,4]triazolo[4,3-a]pyridin-3(2H)-one] to `Cc1nc(-c2cccc(Cn3nc4ccc(-c5ccc(OC(F)(F)F)cc5)cn4c3=O)c2)no1` [compound 8, 2-(3-(5-methyl-1,2,4-oxadiazol-3-yl)benzyl)-6-(4-(trifluoromethoxy)phenyl)-[1,2,4]triazolo[4,3-a]pyridin-3(2H)-one], the inhibition at 1 µM falls from 20.5% to 16.3%.

Going from `O=c1n(CC(O)COc2ccccc2-c2ccccc2)nc2ccc(-c3ccc(OC(F)(F)F)cc3)cn12` (stereo not drawn) [compound 100, 2-(3-(biphenyl-2-yloxy)-2-hydroxypropyl)-6-(4-(trifluoromethoxy)phenyl)-[1,2,4]triazolo[4,3-a]pyridin-3(2H)-one] to `O=c1n(CCCc2ccc(F)cc2)nc2ccc(-c3ccc(OC(F)(F)F)cc3)cn12` [compound 76, 2-(3-(4-fluorophenyl)propyl)-6-(4-(trifluoromethoxy)phenyl)-[1,2,4]triazolo[4,3-a]pyridin-3(2H)-one], the inhibition at 1 µM rises from 18% to 19%.

Going from `C[Si](C)(C)c1ccc(-c2ccc3nn(CCOc4ncccn4)c(=O)n3c2)cc1` [compound 123, 2-(2-(pyrimidin-2-yloxy)ethyl)-6-(4-(trimethylsilyl)phenyl)-[1,2,4]triazolo[4,3-a]pyridin-3(2H)-one] to `CC(C)Oc1ccnc(OCCn2nc3ccc(-c4ccc(OC(F)(F)F)cc4)cn3c2=O)n1` [compound 177, 2-(2-(4-isopropoxypyrimidin-2-yloxy)ethyl)-6-(4-(trifluoromethoxy)phenyl)-[1,2,4]triazolo[4,3-a]pyridin-3(2H)-one], the inhibition at 1 µM falls from 38% to 25.8%.

In the case of `Cc1noc(Cn2nc3ccc(-c4ccc(C(=O)c5ccccc5)cc4)cn3c2=O)n1` [compound 131, 6-(4-benzoylphenyl)-2-((3-methyl-1,2,4-oxadiazol-5-yl)methyl)-[1,2,4]triazolo[4,3-a]pyridin-3(2H)-one], the inhibition at 1 µM was 34.7%.

Same assay, conditions: compound at 1 μM; late INa generated with 10 μM Tefluthrin (or 50 nM ATX II); HEK293 hNav1.5

For `N#Cc1ccnc(OCCn2nc3ccc(-c4ccc(OC(F)(F)F)cc4)cn3c2=O)n1` [compound 129], the “Late INa 1 μM (percent block of late INa)” value was 16.1133%.
